PMC8834506, “Optimization of Thymidine Kinase-Based Safety Switch for Neural Cell Therapy” (Cells, 2022)
Like-named read-outs stand apart in the source and are kept apart here.

Assays:
[1] = system: ReNcells Ubi-SR39h (proliferating); test: ATP-based assay, EC50 in proliferating neural progenitors; assay type: cell-based; conditions: Homo sapiens, 96 h GCV exposure
Protocol: We then compared the ability of GCV to kill proliferating NPC that expressed the SR39h thymidine kinase under the control of the ubiquitin (ReNcells Ubi-SR39h) or the Ki67 promoter. (ReNcells Ki67-SR39h) (Figure 4). For this purpose, we first performed a dose response to GCV on undifferentiated NPC. […] We then explored the kinetic of cell death with the suicide enzyme driven either by Ki67 or ubiquitin promoter for different concentrations of GCV. The rapidity of cell death induction but not its final extent was a function of the GCV concentrations. […] This was true for a short-term treatment at 24 h and 48 h, but not at the later time points at 72 h and 96 h (Figure 4D).
Figure 4 EC50 and kinetics of GCV-induced cell death in proliferating and post-mitotic ReNcells. […] Cell viability was measured every 24 h using a bioluminescent ATP-based assay (n = 3). […] Cell viability was measured using an ATP-based assay. […]
Cell culture plate (96 wells plate Corning #3907, Corning, Lonay, Switzerland) were pre-coated with 60 μL per well of Poly-L-ornithine solution (Sigma, Merk, Eysins, Switzerland) at 37 °C for 30 min. […] For EC50 assays, the medium was changed daily for 4 days, then cell viability was assessed using an ATP-based assay. EC50 values for each construct were calculated using a four parameters equation (GraphPad, Prism8, San Diego, CA, USA). […]

[2] = system: Ubi-SR39h post-mitotic neurons differentiated from ReNcells; assay type: cell-based, human
Protocol: Figure 4 EC50 and kinetics of GCV-induced cell death in proliferating and post-mitotic ReNcells. SR39h was expressed in ReNcells (immortalized neural precursor cells that can be differentiated to post-mitotic neurons) under the control of the two different promoters: Ki67 or ubiquitin. Wild type ReNcells were used as control. […] (B–D) Kinetics of cell death of SR39-expressing ReNcells cells either under the control of cycle promoter Ki67 or ubiquitin promoter with increasing GCV concentrations of 1, 10, and 100 µM. Cell viability was measured every 24 h using a bioluminescent ATP-based assay (n = 3). (E) ReNcells were differentiated toward post-mitotic neurons for 21 days then treated with GCV for 10 days. Cell viability was measured using an ATP-based assay. Results are mean + SD of three independent experiments performed in triplicates. […]
Cell culture plate (96 wells plate Corning #3907, Corning, Lonay, Switzerland) were pre-coated with 60 μL per well of Poly-L-ornithine solution (Sigma, Merk, Eysins, Switzerland) at 37 °C for 30 min. […] For EC50 assays, the medium was changed daily for 4 days, then cell viability was assessed using an ATP-based assay. EC50 values for each construct were calculated using a four parameters equation (GraphPad, Prism8, San Diego, CA, USA). […] Luminescence was measured using Spectra L384/L96 (0.2 sec exposure, Molecular devices, Biberach an der Riß, Germany). […]

[3] = 10 mg/kg/day; cited from earlier work

Compound: Nc1nc(O)c2ncn(COC(CO)CO)c2n1 [GCV, ganciclovir]
- EC50 ([1]; 24-point dose response, n = 3, read-out: EC50 of GCV, ReNcell Ki67-SR39h (second line of the picture's table)): 2.1 nM
- EC50 ([1]; undifferentiated NPC, read-out: EC50 of GCV): ~2.1 nM
- Cell death in post-mitotic neurons (in words) [2]: killed
- GCV concentration from which cell death induction was detected ([2]; human, 10 days): ≥ 10 µM
- Side effects at the maximal recommended doses [3]: considerable side effects
